# Measured values from patent publication US12060351B2, “Thiadiazole IRAK4 inhibitors” (Gilead Sciences, Inc., priority 2018, dated 2024).
# pEC50, pIC50: −log10 of the molar value. Read-outs that look alike come from different tables or passages of the source.
# What was measured:
# TNFα = assay: IRAK4 Monocyte TNFα Cell Based Assay (LPS-stimulated, TR-FRET TNFα detection); set-up: species or system human; settings: human monocytes, LPS-stimulated, Table 2 second part (compounds 33-343), read-out: EC50 MONO TNF HTRF
# Experimental: IRAK4 Monocyte TNFα Cell Based Assay Procedure:
# The cell suspension was then plated at a density of 5,000 cells/well onto black 384 well Greiner clear bottom plates. Plates were pre-spotted with test compounds and serially diluted in DMSO where 40 nL/well were delivered using the Echo 550 acoustic liquid dispenser (Labcyte®) for a final DMSO concentration of 0.1%. Plated cells were treated with compound for 1 hour at 37° C. Cells were then stimulated with 50 pg/ml of LPS (Sigma) excluding outside columns of plate used for unstimulated cell control wells. Cells were incubated for an additional 4 hours at 37° C. Cells were then spun out of the media and 5 μl of sample were taken and analyzed for total TNFα content using the TR-FRET Human TNFα detection system (CisBio). This system utilizes two labeled antibodies (cryptate and XL665) that bind to two different epitopes of the TNFα molecule and produce FRET signal proportional to the concentration of TNFα in the sample. Detection antibodies are mixed 50:50 and 5 μL were dispensed into each well. Plates were covered with clear seals and incubated at room temp overnight. […] Percent of control was calculated as follows: % Control=100×(RatioSample−Ratio0% Stimulation)/(Ratio100% Stimulation−Ratio0% Stimulation) where unstimulated cells (0% stimulation) were the negative control and stimulated cells (100% stimulation) were used as the positive control.
# IRAK4 enzyme = target: T1, IRAK4 enzyme (Homo sapiens, UniProt Q9NWZ3); assay: IRAK4 Biochemical Assay (TR-FRET, STK1 KinEASE); settings: 500 μM ATP, Table 2 second part (compounds 33-343), read-out: IC50 IRAK4-HTBS
# T1 construct: purchased Carna Biosciences, Chuo-ku, Kobe, Japan
# T1 sequence (Q9NWZ3 1-460): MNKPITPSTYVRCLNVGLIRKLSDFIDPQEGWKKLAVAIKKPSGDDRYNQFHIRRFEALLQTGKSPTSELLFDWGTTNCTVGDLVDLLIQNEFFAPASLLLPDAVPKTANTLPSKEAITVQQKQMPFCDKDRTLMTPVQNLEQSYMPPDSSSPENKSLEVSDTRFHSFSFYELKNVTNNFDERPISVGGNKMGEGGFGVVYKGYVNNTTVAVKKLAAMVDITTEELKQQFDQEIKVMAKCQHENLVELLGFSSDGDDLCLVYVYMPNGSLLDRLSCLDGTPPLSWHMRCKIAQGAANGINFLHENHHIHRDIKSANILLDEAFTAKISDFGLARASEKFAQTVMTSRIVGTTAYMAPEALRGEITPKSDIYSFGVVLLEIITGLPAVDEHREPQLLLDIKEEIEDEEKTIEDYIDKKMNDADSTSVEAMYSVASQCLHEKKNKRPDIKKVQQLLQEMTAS
# Experimental: IRAK4 enzyme (Carna Biosciences, Chuo-ku, Kobe, Japan) activity was measured by detecting phosphorylated peptide substrate formation using an antibody against the phosphorylated peptide substrate. This is a time-resolved fluorescence resonance energy transfer (TR-FRET) immunoassay, based on the STK1 KinEASE Assay (Cisbio, Bedford, Massachusetts). The assay was designed as a simple two-step, endpoint assay (a 5 μl enzyme reaction followed by 5 μl stop and detect Solution) performed in ProxiPlate-384 Plus plates (Perkin Elmer, Waltham, Massachusetts). […] Compounds diluted in DMSO were spotted into 384 well plates using a Labcyte® Echo 550 Liquid Handling System prior to addition of IRAK4 enzyme and peptide substrate. Reaction solutions were delivered using a Multi-Flo (Bio-Tek Instruments). The enzyme and peptide solution was incubated with compound for 15 minutes at room temp before the reaction was initiated by the addition of ATP. The standard 5 μl reaction mixture contained 500 μM ATP, 2 μM peptide (STK1 Peptide), 0.75 nM of IRAK4 in reaction buffer (50 mM HEPES, pH 7.0, 0.02% NaN3, 0.01% BSA, 0.1 mM Orthovanadate, 5 mM MgCl2, 0.025% NP-40, 1 mM DTT). After 120 min of incubation at room temperature, 5 μl of Stop and Detect Solution (1:100 Cryptate labeled anti-phosphorylated peptide antibody solution and 125 nM Tracer in a 50 mM HEPES pH 7.0 detection buffer containing sufficient EDTA) was added. The plate was then further incubated for 60 minutes at room temperature and read on Envision 2103 Multilabeled reader (PerkinElmer) with excitation/emission/FRET emission at 340 nm/615 nm/665 nm, respectively. Fluorescence intensities at 615 nm and 665 nm emission wavelengths were expressed as a ratio (665 nm/615 nm).
Compound,pEC50 (TNFα),pIC50 (IRAK4 enzyme),"pEC50 (TNFα; Homo sapiens, Monocyte)"
"7-(5-(5-(4-aminobicyclo[2.2.2]octan-1-yl)-1,3,4-thiadiazol-2-yl)-4-((tetrahydro-2H-pyran-4-yl)amino)pyridin-2-yl)pyrrolo[1,2-b]pyridazine-3-carbonitrile [Example 336]",7.96,9.15,–
"CC(=O)N[C@@H]1[C@@H]2CN(c3nnc(-c4cnc(-c5ccc6cc(C#N)cnn56)cc4NC(C)C)s3)C[C@@H]21 [Compound 239, N-((1R,5S,6r)-3-(5-(6-(3-cyanopyrrolo[1,2-b]pyridazin-7-yl)-4-(isopropylamino)pyridin-3-yl)-1,3,4-thiadiazol-2-yl)-3-azabicyclo[3.1.0]hexan-6-yl)acetamide]",–,9.96,8.31
"CC(=O)N[C@H]1[C@@H]2CN(c3nnc(-c4cnc(-c5ccc6cc(C#N)cnn56)cc4NC(C)C)s3)C[C@@H]21 [Compound 240, N-((1R,5S,6s)-3-(5-(6-(3-cyanopyrrolo[1,2-b]pyridazin-7-yl)-4-(isopropylamino)pyridin-3-yl)-1,3,4-thiadiazol-2-yl)-3-azabicyclo[3.1.0]hexan-6-yl)acetamide]",–,9.82,8.05
"CC(=O)N[C@H]1CC[C@H](c2nnc(-c3cnc(-c4ccc5cc(C#N)cnn45)cc3NC34CCC(O)(CC3)CC4)s2)CC1 [Compound 241, N-((1r,4r)-4-(5-(6-(3-cyanopyrrolo[1,2-b]pyridazin-7-yl)-4-((4-hydroxybicyclo[2.2.2]octan-1-yl)amino)pyridin-3-yl)-1,3,4-thiadiazol-2-yl)cyclohexyl)acctamide]",–,8.86,8.32
"CC(=O)N[C@H]1CC[C@H](c2nnc(-c3cnc(-c4ccc5cc(C#N)cnn45)cc3N[C@H]3C[C@@](C)(O)C3)s2)CC1 [Compound 243, N-((1R,4r)-4-(5-(6-(3-cyanopyrrolo[1,2-b]pyridazin-7-yl)-4-(((1s,3S)-3-hydroxy-3-methylcyclobutyl)amino)pyridin-3-yl)-1,3,4-thiadiazol-2-yl)cyclohexyl)acetamide]",–,9.26,8.19
"CC(=O)N[C@H]1CC[C@H](c2nnc(-c3cnc(-c4ccc5cc(C#N)cnn45)cc3N[C@H]3CCC[C@@H](O)C3)s2)CC1 [Compound 245, N-((1S,4r)-4-(5-(6-(3-cyanopyrrolo[1,2-b]pyridazin-7-yl)-4-(((1S,3R)-3-hydroxycyclohexyl)amino)pyridin-3-yl)-1,3,4-thiadiazol-2-yl)cyclohexyl)acetamide]",–,9.26,8.49
"CC(=O)N[C@H]1CC[C@H](c2nnc(-c3cnc(-c4ccc5cc(C#N)cnn45)cc3NC3CCOCC3)s2)CC1 [Compound 255, N-((1r,4r)-4-(5-(6-(3-cyanopyrrolo[1,2-b]pyridazin-7-yl)-4-((tetrahydro-2H-pyran-4-yl)amino)pyridin-3-yl)-1,3,4-thiadiazol-2-yl)cyclohexyl)acetamide]",–,9.20,8.29
"CC(C)Nc1cc(-c2ccc3cc(C#N)cnn23)ncc1-c1nnc(N2CCS(=N)(=O)CC2)s1 [Compound 262, 7-(5-(5-(1-imino-1-oxido-116-thiomorpholino)-1,3,4-thiadiazol-2-yl)-4-(isopropylamino)pyridin-2-yl)pyrrolo[1,2-b]pyridazine-3-carbonitrile]",–,8.42,7.16
"CC(=O)N[C@H]1CC[C@H](c2nnc(-c3cnc(-c4ccc5cc(C#N)cnn45)cc3NC3(C)CCOCC3)s2)CC1 [Compound 268, N-((1r,4r)-4-(5-(6-(3-cyanopyrrolo[1,2-b]pyridazin-7-yl)-4-((4-methyltetrahydro-2H-pyran-4-yl)amino)pyridin-3-yl)-1,3,4-thiadiazol-2-yl)cyclohexyl)acetamide]",–,9.21,7.85
"CC(=O)N[C@@H]1[C@@H]2CC[C@H]1CN(c1nnc(-c3cnc(-c4ccc5cc(C#N)cnn45)cc3NC3(C)CCOCC3)s1)C2 [Compound 272, N-((1R,5S,8s)-3-(5-(6-(3-cyanopyrrolo[1,2-b]pyridazin-7-yl)-4-((4-methyltetrahydro-2H-pyran-4-yl)amino)pyridin-3-yl)-1,3,4-thiadiazol-2-yl)-3-azabicyclo[3.2.1]octan-8-yl)acetamide]",–,8.96,8.39
"CC(C)Nc1cc(-c2ccc3cc(C#N)cnn23)ncc1-c1nnc(N2C3CC2CN(C(=O)CN=S(C)(C)=O)C3)s1 [Compound 276, 7-(5-(5-(3-(2-((dimethyl(oxo)-16-sulfanylidene)amino)acetyl)-3,6-diazabicyclo[3.1.1]heptan-6-yl)-1,3,4-thiadiazol-2-yl)-4-(isopropylamino)pyridin-2-yl)pyrrolo[1,2-b]pyridazinc-3-carbonitrile]",–,9.05,8.11
"CC(=O)N[C@H]1C[C@H](c2nnc(-c3cnc(-c4ccc5cc(C#N)cnn45)cc3NC(C)C)s2)C1 [Compound 278, N-((1r,3r)-3-(5-(6-(3-cyanopyrrolo[1,2-b]pyridazin-7-yl)-4-(isopropylamino)pyridin-3-yl)-1,3,4-thiadiazol-2-yl)cyclobutyl)acetamide]",–,10.15,≤ 5.00
"CC(=O)N[C@H]1C[C@@H](c2nnc(-c3cnc(-c4ccc5cc(C#N)cnn45)cc3NC(C)C)s2)C1 [Compound 279, N-((1s,3s)-3-(5-(6-(3-cyanopyrrolo[1,2-b]pyridazin-7-yl)-4-(isopropylamino)pyridin-3-yl)-1,3,4-thiadiazol-2-yl)cyclobutyl)acetamide]",–,9.40,7.80
"CC(=O)NC[C@H]1C[C@@H](c2nnc(-c3cnc(-c4ccc5cc(C#N)cnn45)cc3NC(C)C)s2)C1 [Compound 289, N-(((1s,3s)-3-(5-(6-(3-cyanopyrrolo[1,2-b]pyridazin-7-yl)-4-(isopropylamino)pyridin-3-yl)-1,3,4-thiadiazol-2-yl)cyclobutyl)methyl)acetamide]",–,9.62,7.67
"CC(=O)NC[C@H]1C[C@H](c2nnc(-c3cnc(-c4ccc5cc(C#N)cnn45)cc3NC(C)C)s2)C1 [Compound 290, N-(((1r,3r)-3-(5-(6-(3-cyanopyrrolo[1,2-b]pyridazin-7-yl)-4-(isopropylamino)pyridin-3-yl)-1,3,4-thiadiazol-2-yl)cyclobutyl)methyl)acetamide]",–,9.48,7.79
"CC(C)Nc1cc(-c2ccc3cc(C#N)cnn23)ncc1-c1nnc(N2C[C@H]3CC[C@@H](C2)[C@H]3O)s1 [Example 146, 7-(5-(5-((1R,5S,8r)-8-hydroxy-3-azabicyclo[3.2.1]octan-3-yl)-1,3,4-thiadiazol-2-yl)-4-(isopropylamino)pyridin-2-yl)pyrrolo[1,2-b]pyridazine-3-carbonitrile]",–,9.32,–
"CC(C)Nc1cc(-c2ccc3cc(C#N)cnn23)ncc1-c1nnc(N2C[C@H]3CC[C@@H](C2)[C@@H]3O)s1 [Example 154, 7-(5-(5-((1R,5S,8s)-8-hydroxy-3-azabicyclo[3.2.1]octan-3-yl)-1,3,4-thiadiazol-2-yl)-4-(isopropylamino)pyridin-2-yl)pyrrolo[1,2-b]pyridazine-3-carbonitrile]",–,8.80,–
